Source: publication PMC2871681 (Bioorganic & medicinal chemistry, 2010)
“Also recorded” adds a separate entry of the source. Where two headings read alike, the source gives them in different places.

Assays:
[1] = molecular target: T1, mGluR5 (Rattus norvegicus, UniProt P31424); assay: mGluR5 radioligand displacement binding assay with [3H]MPEP; conditions: for decrease in binding affinity compared to the phenyl analogue: 17 v. 22, 18 v. 25
[2] = molecular target: T1, mGluR5; assay: mGluR5 functional assay, calcium fluorescence; type: cell-based
[3] = read-out: mGluR5 binding affinity Ki±SEM, [3H]MPEP, rat brain membranes or HEK293-T cells transfected with cloned rat mGluR5
[4] = read-out: mGluR5 function (Ca+2 flux) IC50±SEM, inhibition of glutamate-induced calcium mobilization

T1 sequence (P31424 21-1203): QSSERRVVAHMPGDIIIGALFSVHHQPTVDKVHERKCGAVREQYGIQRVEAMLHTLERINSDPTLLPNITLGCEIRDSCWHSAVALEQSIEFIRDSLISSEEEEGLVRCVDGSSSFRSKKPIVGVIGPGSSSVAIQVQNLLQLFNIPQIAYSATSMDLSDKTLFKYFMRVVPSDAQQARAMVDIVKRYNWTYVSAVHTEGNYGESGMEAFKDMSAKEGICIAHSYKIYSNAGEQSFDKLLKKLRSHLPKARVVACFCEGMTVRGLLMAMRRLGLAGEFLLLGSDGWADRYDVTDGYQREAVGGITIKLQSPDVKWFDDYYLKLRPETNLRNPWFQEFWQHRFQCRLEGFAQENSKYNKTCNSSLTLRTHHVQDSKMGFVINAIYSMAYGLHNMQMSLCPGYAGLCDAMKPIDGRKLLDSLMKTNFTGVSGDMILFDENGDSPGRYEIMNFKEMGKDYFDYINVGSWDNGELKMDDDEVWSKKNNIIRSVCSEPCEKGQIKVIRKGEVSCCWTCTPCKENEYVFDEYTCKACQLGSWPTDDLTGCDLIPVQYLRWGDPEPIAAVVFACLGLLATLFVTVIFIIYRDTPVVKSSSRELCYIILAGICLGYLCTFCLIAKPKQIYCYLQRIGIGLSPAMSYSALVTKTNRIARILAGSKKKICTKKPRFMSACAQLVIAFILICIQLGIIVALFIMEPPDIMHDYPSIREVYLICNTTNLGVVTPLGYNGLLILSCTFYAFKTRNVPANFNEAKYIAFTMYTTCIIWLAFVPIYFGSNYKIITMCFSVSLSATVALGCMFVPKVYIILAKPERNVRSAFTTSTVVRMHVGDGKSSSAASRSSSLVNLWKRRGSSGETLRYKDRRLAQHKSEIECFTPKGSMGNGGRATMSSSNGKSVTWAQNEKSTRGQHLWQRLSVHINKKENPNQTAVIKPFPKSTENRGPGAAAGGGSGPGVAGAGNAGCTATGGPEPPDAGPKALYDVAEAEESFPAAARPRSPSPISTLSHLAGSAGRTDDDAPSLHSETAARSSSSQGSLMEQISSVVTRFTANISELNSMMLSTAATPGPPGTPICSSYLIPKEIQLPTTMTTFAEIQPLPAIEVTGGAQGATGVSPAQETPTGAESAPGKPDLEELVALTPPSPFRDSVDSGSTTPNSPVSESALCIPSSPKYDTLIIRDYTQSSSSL

Molecule	decrease in binding affinity compared to the phenyl analogue [1]	Ki [1, 3]	IC50 [2, 4]	other results
Cc1ccc2ccc(-c3ccc(OCc4ccccc4)c(C#N)c3)cc2n1 [compound 17, 2-Benzoxy-5-(2-methylquinolin-7-yl)benzonitrile]	~ 10 fold			
2-(Pyridin-3-yl)-4-(2-methylbenzo[d]thiazol-5-yl)benzonitrile [compound 26]		> 10000 nM	> 10 µM	activity at mGluR5 in words [1]: completely inactive
Cc1ccc2ccc(-c3cnc(Cl)c(C#N)c3)cc2n1 [compound 31, 2-Chloro-5-(2-methylquinolin-7-yl)nicotinonitrile]				mode of mGluR5 antagonism (full or partial) ([2]; glutamate-induced mGluR5 activity): partial antagonist activity; also recorded: weak partial antagonist
2-Phenyl-4-(2-methylbenzo[d]thiazol-5-yl)benzonitrile [compound 25]		483 ± 98 nM	6.89 ± 1.25 µM	increase in binding affinity compared to parent structure 4 ([1]; 25 v. 4): ~ 4 fold
Cc1nc2cc(-c3ccc(OCc4ccccc4)c(C#N)c3)ccc2s1 [compound 18, 2-Benzoxy-5-(2-methylbenzo[d]thiazol-5-yl)benzonitrile]	15 fold			
Cc1ccc2ccc(-c3cncc(C#N)c3)cc2n1 [compound 30, 5-(2-Methylquinolin-7-yl)nicotinonitrile]				Ki [1]: 100 ± 21 nM; IC50 [2]: 0.068 ± 0.0053 µM
